Data reported in publication PMC8236452, “Pharmacokinetics and safety of rucaparib in patients with advanced solid tumors and hepatic impairment” (Cancer Chemotherapy and Pharmacology, 2021).

Key:
[1] = ref unpublished results; cited from earlier work
PARP [2] = system: PARP; set-up: method as in earlier work; conditions: cited from earlier work
[3] = cited from earlier work
[4] = Plasma pharmacokinetics after a single oral dose of rucaparib 600 mg in patients with advanced solid tumors, by hepatic function group; conditions: for AUC0–last, Geometric LS means / Cmax, Geometric LS means: ANOVA; for AUC0–inf, GM / AUC0–inf, Mean (SD) / AUC0–inf, Median (min–max) / AUC0–last, GM / AUC0–last, Mean (SD) / AUC0–last, Median (min–max) / Cmax, GM / Cmax, Mean (SD) / Cmax, Median (min–max) / tmax, Median (min–max): single oral rucaparib 600 mg
Experimental: (§1) In Part 1, patients received a single oral dose of rucaparib 600 mg on day 1; PK samples were collected and safety monitored through day 7.
(§2) Sample collection, processing, and shipping were conducted according to standardized protocols shared across study sites. Plasma samples were collected for PK analysis at the predose assessment and at 1, 2, 3, 4, 8, 12, 24, 48, 72, 96, 120, and 144 h postdose. A predose urine sample was collected less than 12 h prior to study drug administration. Total urine was collected 0–12 h and 12–24 h postdose. Total (bound and unbound) concentrations of rucaparib and its metabolite M324 in plasma and urine samples were determined by Q Squared Solutions BioSciences (Ithaca, NY, USA) using validated liquid chromatography mass spectrometry/mass spectrometry methods. Stable deuterium-labeled analytes were used as internal standards. The assay calibration ranges for plasma samples were 5–10,000 ng/mL for rucaparib and 1–1000 ng/mL for M324 with lower limits of quantification (LLOQ) of 5.00 and 1.00 ng/mL, respectively. For urine samples, the calibration range was 500–50,000 ng/mL for both rucaparib and M324, with a LLOQ of 500 ng/mL for both analytes. The precision was within 9.3% CV, and the accuracy was within ± 6.2%.
(§3) PK parameters were estimated from the concentration–time profiles. Actual elapsed time after dosing was used to estimate plasma PK parameters based on noncompartmental methods using Phoenix® WinNonlin® version 8.1.0 (Certara USA, Inc., Princeton, NJ, USA). […] Exploratory PK parameters for M324 calculated based on plasma and urine concentration-time data were Cmax, AUC0–last, AUC0–inf, t1/2, tmax, Ae0–24, and CLR, as data allowed.
(§4) PK parameters were calculated by noncompartmental analysis, analyzed using descriptive statistics, and presented by hepatic functional status. Analysis of variance (ANOVA) was used to compare PK parameters (e.g., Cmax, AUC0–last, and AUC0–inf) between the normal hepatic function group and the moderate hepatic impairment group per NCI-ODWG criteria. PK values were log-transformed before analysis. Baseline covariates (e.g., creatinine clearance [CLcr], sex, age, BMI, and ECOG PS) were tested for any significant effect (P value < 0.05). Geometric least-squares means were used to calculate the ratios of the PK parameters in the hepatic impairment group to those in the control group, along with 90% confidence intervals (CIs). The Wilcoxon rank-sum test was used to compare tmax values between the two groups, and estimates of the median differences were determined, along with 90% CIs. In addition, the relationships between log-transformed PK parameters (AUC0–last, AUC0–inf, Cmax) for rucaparib and M324 and hepatic function parameters (bilirubin and aspartate aminotransferase [AST]) relevant to the classification of hepatic impairment according to NCI-ODWG were explored by a linear regression approach.

[5] = human, in vivo
Experimental: as §1, §2, §3, §4

[6] = Urine pharmacokinetics (Ae0–24, CLR) after a single oral dose of rucaparib 600 mg in patients with advanced solid tumors; format: in vivo, human; conditions: single oral rucaparib 600 mg; for Ae0–24, GM / Ae0–24, Mean (SD) / Ae0–24, Median (min–max): urine
From the text: Stable deuterium-labeled analytes were used as internal standards.
PK parameters were estimated from the concentration–time profiles.

PARP [7] = conditions: cited from earlier work
[8] = NCI-ODWG moderate hepatic impairment (n = 8)
[9] = NCI-ODWG normal hepatic function (n = 8)
[10] = Child–Pugh mild hepatic impairment
[11] = Child–Pugh moderate hepatic impairment
[12] = Child–Pugh severe hepatic impairment
[13] = NCI-ODWG moderate hepatic impairment
[14] = NCI-ODWG normal hepatic function
[15] = linear regression of log-transformed PK parameter on hepatic function parameter (NCI-ODWG)

O=C(O)c1ccc(-c2[nH]c3cc(F)cc4c3c2CCNC4=O)cc1 [M324]
plasma protein binding [1]: 91% | activity in in vitro target binding affinity and cytotoxicity assay (PARP [2]): inactive | formation of M324, share of total clearance of rucaparib [3]: ~ 1/3 | AUC0–last, Geometric LS means [4, 8]: 5930 h⋅ng/mL | Cmax, Geometric LS means [4, 8]: 76.7 ng/mL | AUC0–last, Geometric LS means [4, 9]: 4000 h⋅ng/mL | Cmax, Geometric LS means [4, 9]: 72.7 ng/mL | AUC0–inf, GM [4, 10]: 5590 h⋅ng/mL | AUC0–inf, Mean (SD) [4, 10]: 5800 (1720) h⋅ng/mL | AUC0–inf, Median (min–max) [4, 10]: 5700 (3960–8340) h⋅ng/mL | AUC0–last, GM [4, 10]: 4740 h⋅ng/mL | AUC0–last, Mean (SD) [4, 10]: 5070 (1910) h⋅ng/mL | AUC0–last, Median (min–max) [4, 10]: 5130 (2330–7890) h⋅ng/mL | Cmax, GM [4, 10]: 97.9 ng/mL | Cmax, Mean (SD) [4, 10]: 111 (62.9) ng/mL | Cmax, Median (min–max) [4, 10]: 98.7 (42.7–235) ng/mL | tmax, Median (min–max) [4, 10]: 4.00 (3.00–24.0) h | AUC0–inf, GM [4, 11]: 3580 h⋅ng/mL | AUC0–inf, Mean (SD) [4, 11]: 3840 (1590) h⋅ng/mL | AUC0–inf, Median (min–max) [4, 11]: 4190 (2100–5230) h⋅ng/mL | AUC0–last, GM [4, 11]: 4550 h⋅ng/mL | AUC0–last, Mean (SD) [4, 11]: 5690 (4710) h⋅ng/mL | AUC0–last, Median (min–max) [4, 11]: 3810 (1930–15,600) h⋅ng/mL | Cmax, GM [4, 11]: 57.4 ng/mL | Cmax, Mean (SD) [4, 11]: 64.1 (33.1) ng/mL | Cmax, Median (min–max) [4, 11]: 50.9 (28.9–118) ng/mL | tmax, Median (min–max) [4, 11]: 23.9 (4.03–72.0) h | AUC0–last, GM [4, 12]: 6840 h⋅ng/mL | AUC0–last, Mean (SD) [4, 12]: 15,900 (20,200) h⋅ng/mL | AUC0–last, Median (min–max) [4, 12]: 15,900 (1550–30,200) h⋅ng/mL | Cmax, GM [4, 12]: 72.5 ng/mL | Cmax, Mean (SD) [4, 12]: 164 (208) ng/mL | Cmax, Median (min–max) [4, 12]: 164 (16.9–311) ng/mL | tmax, Median (min–max) [4, 12]: 73.5 (2.97–144) h | AUC0–inf, GM [4, 13]: 4960 h⋅ng/mL | AUC0–inf, Mean (SD) [4, 13]: 4990 (720) h⋅ng/mL | AUC0–inf, Median (min–max) [4, 13]: 5230 (4190–5570) h⋅ng/mL | AUC0–last, GM [4, 13]: 5930 h⋅ng/mL | AUC0–last, Mean (SD) [4, 13]: 8940 (9600) h⋅ng/mL | AUC0–last, Median (min–max) [4, 13]: 4760 (1550–30,200) h⋅ng/mL | Cmax, GM [4, 13]: 76.7 ng/mL | Cmax, Mean (SD) [4, 13]: 105 (91.8) ng/mL | Cmax, Median (min–max) [4, 13]: 83.7 (16.9–311) ng/mL | tmax, Median (min–max) [4, 13]: 30.0 (2.97–144) h | AUC0–inf, GM [4, 14]: 4750 h⋅ng/mL | AUC0–inf, Mean (SD) [4, 14]: 5220 (2300) h⋅ng/mL | AUC0–inf, Median (min–max) [4, 14]: 4930 (2100–8340) h⋅ng/mL | AUC0–last, GM [4, 14]: 4000 h⋅ng/mL | AUC0–last, Mean (SD) [4, 14]: 4450 (2130) h⋅ng/mL | AUC0–last, Median (min–max) [4, 14]: 3810 (1930–7890) h⋅ng/mL | Cmax, GM [4, 14]: 72.7 ng/mL | Cmax, Mean (SD) [4, 14]: 90.1 (67.4) ng/mL | Cmax, Median (min–max) [4, 14]: 74.5 (28.9–235) ng/mL | tmax, Median (min–max) [4, 14]: 10.1 (3.00–24.0) h | Slope estimate (90% CI), AUC0-last vs AST [4, 15]: 0.001 (–0.001 to 0.004) | Slope estimate (90% CI), AUC0-last vs Bilirubin [4, 15]: –0.004 (–0.018 to 0.011) | Slope estimate (90% CI), Cmax vs AST [4, 15]: 0 (–0.002 to 0.003) | Slope estimate (90% CI), Cmax vs Bilirubin [4, 15]: –0.007 (–0.022 to 0.007) | AUC0–last, Geometric mean ratio Moderate/normal (90% CI) [5]: 1.483 (0.766–2.868) | Cmax, Geometric mean ratio Moderate/normal (90% CI) [5]: 1.055 (0.529–2.105) | CLR, GM [6, 10]: 119 mL/min | CLR, Mean (SD) [6, 10]: 121 (26.2) mL/min | CLR, Median (min–max) [6, 10]: 114 (94.7–161) mL/min | CLR, GM [6, 11]: 68.5 mL/min | CLR, Mean (SD) [6, 11]: 90.5 (55.6) mL/min | CLR, Median (min–max) [6, 11]: 104 (12.7–163) mL/min | CLR, GM [6, 12]: 24.8 mL/min | CLR, Mean (SD) [6, 12]: 39.3 (43.1) mL/min | CLR, Median (min–max) [6, 12]: 39.3 (8.84–69.8) mL/min | CLR, GM [6, 13]: 47.7 mL/min | CLR, Mean (SD) [6, 13]: 72.7 (57.6) mL/min | CLR, Median (min–max) [6, 13]: 69.8 (8.84–163) mL/min | CLR, GM [6, 14]: 118 mL/min | CLR, Mean (SD) [6, 14]: 120 (24.0) mL/min | CLR, Median (min–max) [6, 14]: 113 (96.7–161) mL/min | Ae0–24, GM [6, 10]: 13.1 mg | Ae0–24, Mean (SD) [6, 10]: 16.1 (11.9) mg | Ae0–24, Median (min–max) [6, 10]: 14.5 (4.77–40.9) mg | Ae0–24, GM [6, 11]: 4.33 mg | Ae0–24, Mean (SD) [6, 11]: 5.44 (4.06) mg | Ae0–24, Median (min–max) [6, 11]: 4.29 (1.46–12.8) mg | Ae0–24, GM [6, 12]: 1.37 mg | Ae0–24, Mean (SD) [6, 12]: 1.38 (0.193) mg | Ae0–24, Median (min–max) [6, 12]: 1.38 (1.24–1.51) mg | Ae0–24, GM [6, 13]: 3.61 mg | Ae0–24, Mean (SD) [6, 13]: 5.46 (4.96) mg | Ae0–24, Median (min–max) [6, 13]: 2.88 (1.24–12.8) mg | Ae0–24, GM [6, 14]: 10.0 mg | Ae0–24, Mean (SD) [6, 14]: 13.7 (12.3) mg | Ae0–24, Median (min–max) [6, 14]: 10.9 (3.47–40.9) mg | biological activity, in vitro PARP inhibition data (PARP [7]): not biologically active
